The nature of data set [1]: Solubility of the compound. In kind it is physicochemical.
The subject of data set [2] is HT-29. The experiment in a line: Cytotoxicity against human HT-29 cells at 100 uM after 72 hrs by MTT assay. As to conditions: HT-29, 72 h. In kind it is functional. For orientation: Tetrazolium assays rely on reduction of a dye to a coloured formazan, in cell work by metabolically active cells.
Data set [3] concerns SW480. The experiment in a line: Cytotoxicity against human SW480 cells at 100 uM after 72 hrs by MTT assay. In kind it is functional. As to conditions: SW480, 72 h.
For data set [4], the system named is MCF7. The experiment in a line: Cytotoxicity against human MCF7 cells at 100 uM after 72 hrs by MTT assay. In kind it is functional. As to conditions: MCF7, 72 h.
Data set [5] has as its system A2780. As to the kind of experiment: Cytotoxicity against human A2780 cells at 100 uM after 72 hrs by MTT assay. In kind it is functional. As to conditions: A2780, 72 h.
In data set [6] the test system is NCI-H460. As to the kind of experiment: Cytotoxicity against human H460 cells at 100 uM after 72 hrs by MTT assay. In kind it is functional. To be noted: NCI-H460, 72 h.
The subject of data set [7] is A-431. As to the kind of experiment: Cytotoxicity against human A431 cells at 100 uM after 72 hrs by MTT assay. It is filed as functional. As to conditions: A-431, 72 h.
In data set [8] the test system is DU-145. As to the kind of experiment: Cytotoxicity against human DU145 cells at 100 uM after 72 hrs by MTT assay. It is filed as functional. As to conditions: DU-145, 72 h.
The nature of data set [9]: Cytotoxicity against human BE(2)-C cells at 100 uM after 72 hrs by MTT assay. It is filed as functional.
Data set [10] in a line: Cytotoxicity against human SJ-G2 cells at 100 uM after 72 hrs by MTT assay. In kind it is functional. To be noted: SJ-G2, 72 h.
A short description of data set [11]: Inhibition of rabbit skeletal muscle protein phosphatase 1 assessed as free phosphate ion release after 60 mins by malachite green method. Also on record: species or system Oryctolagus cuniculus.
Data set [12] can be described thus: Inhibition of human red blood cells protein phosphatase 2A assessed as free phosphate ion release after 60 mins by malachite green method.
Data set [13] concerns HT-29. The experiment in a line: Cytotoxicity against human HT-29 cells after 72 hrs by MTT assay. To be noted: HT-29, 72 h. In kind it is functional.
The subject of data set [14] is SW480. The experiment in a line: Cytotoxicity against human SW480 cells after 72 hrs by MTT assay. It is filed as functional. As to conditions: SW480, 72 h.
Data set [15] has as its system MCF7. The experiment in a line: Cytotoxicity against human MCF7 cells after 72 hrs by MTT assay. To be noted: MCF7, 72 h. In kind it is functional.
Data set [16] has as its system A2780. As to the kind of experiment: Cytotoxicity against human A2780 cells after 72 hrs by MTT assay. It is filed as functional. As to conditions: A2780, 72 h.
Data set [17] has as its system NCI-H460. As to the kind of experiment: Cytotoxicity against human H460 cells after 72 hrs by MTT assay. In kind it is functional. To be noted: NCI-H460, 72 h.
The test system of data set [18] is A-431. As to the kind of experiment: Cytotoxicity against human A431 cells after 72 hrs by MTT assay. It is filed as functional. To be noted: A-431, 72 h.
In data set [19] the test system is DU-145. The experiment in a line: Cytotoxicity against human DU145 cells after 72 hrs by MTT assay. It is filed as functional. To be noted: DU-145, 72 h.
The nature of data set [20]: Cytotoxicity against human BE(2)-C cells after 72 hrs by MTT assay. It is filed as functional.
A short description of data set [21]: Cytotoxicity against human SJ-G2 cells after 72 hrs by MTT assay. It is filed as functional. To be noted: SJ-G2, 72 h.

For the compound `O=C1[C@H]2CNC[C@H]2C(=O)N1N1CCOCC1`, the solubility result in data set [1] is “Insoluble”.

Regarding `CN(C)CCNC(=O)[C@@H]1CNC[C@@H]1C(=O)O`, the solubility entry in data set [1] is “Insoluble”.

By inhibition is commonly meant the percentage by which the read-out fell short of the control. For `CC(CO)N1C(=O)[C@H]2CN(Cc3ccccc3)C[C@H]2C1=O` (stereo partly specified), the inhibition at 100 µM in the data set on HT-29 [2] was 15%; in the data set with SW480 [3], 12%; in the data set on MCF7 [4], 22%; in the data set on A2780 [5], 21%; in the data set on NCI-H460 [6] it was 14%; in the data set with A-431 [7] it was less than 10%. Further, the inhibition at 100 µM in the data set with DU-145 [8] came to 10%; in [9], 10%; in data set [10], 18%.

Turning to `CCC(CO)N1C(=O)[C@H]2CN(Cc3ccccc3)C[C@H]2C1=O` (stereo partly specified), the inhibition at 100 µM is 14% with HT-29 [2]; 15% in the data set on SW480 [3]; less than 10% in the data set on MCF7 [4]; 15% in the data set with A2780 [5]; less than 10% with NCI-H460 [6]; less than 10% in the data set on A-431 [7]. The inhibition at 100 µM (in the data set with DU-145 [8]; in [9]; in data set [10]) was less than 10% each time.

`CCCN1C(=O)[C@H]2CNC[C@H]2C1=O`: the solubility entry in data set [1] was “Insoluble”.

The term IC50 denotes the point on the concentration scale where inhibition reaches its midpoint. As for `O=C1OC(=O)[C@@H]2CSC[C@H]12`, the solubility result in [1] is “Insoluble”. Further, the IC50 in data set [11] and in data set [12] was greater than 100 µM throughout.

As a reminder, the GI50 is the concentration giving 50% growth inhibition. A low value points to greater sensitivity of the cells. As for `O=C1OC(=O)C2C3CCC(O3)C12` (stereo unspecified), the GI50 in the data set on HT-29 [13] stood at 57 µM; with SW480 [14], 44 µM; with MCF7 [15], 68 µM; with A2780 [16] it was 38 µM; in the data set with NCI-H460 [17] it was 45 µM; with A-431 [18], 31 µM. Further, the GI50 turned out to be 28 µM in the data set with DU-145 [19], 43 µM in data set [20] and 23 µM in [21]. For the same compound, the IC50 turned out to be 7.7 µM in data set [11] and 2.7 µM in [12].

On to `C[C@@]12C(=O)OC(=O)[C@]1(C)[C@H]1CC[C@@H]2O1` [CANTHARIDIN], for which the GI50 was 3.2 µM with HT-29 [13]; 4.5 µM in the data set on SW480 [14]; 7.5 µM in the data set with MCF7 [15]; 4.4 µM with A2780 [16]; 3.3 µM in the data set with NCI-H460 [17]; 2.9 µM in the data set on A-431 [18]. Moreover, the values for the 50% growth inhibitory concentration (GI50) (in the data set with DU-145 [19]; in [20]; in data set [21]) were 2.1 µM, 3.7 µM and 1.7 µM, respectively. Further, the values for the IC50 in data set [11] and in data set [12] were 6 µM and 0.9 µM, respectively.
